In data set [1] the test system is acute pancreatitis murine model. Briefly: Caerulein-induced acute pancreatitis murine model. Format: in vivo, Balb/c mice. Further details: Serum IL33 level / Serum TGF-B level: unit not given here. The procedure:
Therapeutic efficacy of the compounds according to the present invention was assessed on an acute pancreatitis murine model. Tissue samples were obtained to allow post in-life analysis of pancreatitis parameters. Plasma samples were also obtained to assess animal exposure levels after administration of the compounds.
Animals: A total of 70 female Balb/c mice aged 8-10 weeks weighing approximately 20-25 g were used for the study (Charles River). After 7 days acclimatization, they were allocated into the different groups. […] Cages, bedding, and water were sanitized before use. Animals were provided with Corn-o-cobs enrichment bedding to provide environment enrichment and nesting material. […] The animal holding room were maintained as follows—room temperature at 20-24° C., humidity at 30-70% and a 12 h light/dark cycle used. Although animals used in this study were immuno-competent, preparation of dosing solutions and dosing/weighing of animals were carried out in a sterile biosafety cabinet.
Final formulation was in 5% DMSO, 10% Solutol, 10% PEG400, 75% 0.9% Saline and pH adjusted to 7 with 0.5M NaOH solution.
Final formulation is in 5% DMSO, 10% Solutol, 10% PEG400, 75% 0.9% Saline and pH adjusted to 7 with 0.5M NaOH solution. For per os (PO) dosing IVc-059a is formulated in water. Drug solutions were formulated on the day of dosing.
The purposes of this study were to assess efficacy compounds in an acute pancreatitis model (14 days), generate tissue samples to allow post in-life analysis of pancreatitis parameters and generate four plasma samples to assess animal exposure levels after first and last injection obtained from blood samples taken 1 h and 24 h after first and last injection.
Study Design: On the first study day animals were randomly be assigned to treatment groups, ensuring an equal spread of bodyweight. Mice (except negative control group) were treated with test compounds were given 5 minutes prior to caerulein dosing, followed by injection with caerulein at […] via intraperitoneal route (IP) daily during the study.
Treatment of test compounds were given 5 minutes prior to caerulein dosing.
Sampling and post in-life analyses: at times indicated above a whole blood sample (60 μl) were taken from the lateral tail vein into tubes coated with K2-EDTA. Plasma samples were prepared and stored frozen at −20° C. Plasma samples were sent to client bioanalysis provider Eurofins (FR) for quantification of compound.
Terminal Sampling: Prior to termination animals were weighed. Terminal study animals were culled via CO2 inhalation. A terminal blood sample was taken via cardiac puncture and plasma prepared. Lipase and Amylase activities were measured via ELISA using commercially available ELISA kits. Remaining plasma was stored for future cytokine analyses. Pancreas tissue was resected and weighed, and a section ([…]) snap frozen and analysed for quantification of compound in pancreas sample. A section ([…]) was processed for measurement of MPO activity, IL-33 and TGF-B levels via ELISA. The remainder was fixed in formalin and embedded in paraffin wax. H&E staining was carried out and section assessed using Schmidts standard scoring system, examining: edema, inflammatory infiltration, parenchymal necrosis, haemorrhage. Massons' Trichrome staining was carried out and area covered by fibrotic tissue quantified digitally using QuPath software. Terminal serum samples was used to assess blood chemistry using an IdeXX CHEM15 and LYTE4 clip (4 animals per treatment group).
Histopathology assessment of pancreatic injury based on 4 criteria: Oedema, Inflammatory infiltration, Parenchymal necrosis, Haemorrhage and scored as described below.
Schmidt score is the evaluation of the efficacy of the compounds based on the four histopathology criteria as described in the table below.

Data set [2] relates to bleomycin induced pulmonary fibrosis. Briefly: Bleomycin induced pulmonary fibrosis, 21 days. Format: in vivo, mice. To be noted: day 21; pirfenidone 100 mg/kg, IVc-059a 15 mg/kg. The procedure: A total of 40 male Balb/c mice aged 8-10 weeks were used for the study.
Mice were anesthetized using an IP injection of xylazine and ketamine. Once an appropriate plane of anaesthesia was achieved, animals had 1.0 U/kg bleomycin sulphate instilled via intratracheal route. The total volume of liquid was 50 μL.
Dosing of IV and positive control (pirfenidone) started 24 hours after bleomycin instillation.
Drug solution was formulated immediately prior to dosing. For a dose of 15 mg/kg (enough for 12, 30 g mice) 4.5 mg of compound was weighed out. 75 μl (5%) DMSO added and mixed until drug is in solution. 150 μl (10%) solutol added and vortexed gently, 150 μl (10%) PEG400 added and vortexed gently. 1000 μl PBS (pH7) was added and matrix was measured to ensure pH 7.0 was maintained. Remaining PBS (to a total of 1500 μl) was added. Compound remained in solution. […]
Ashcroft score: Lungs from each animal were FFPE, sectioned and stained with H&E according to an in-house protocol. […] Each lung was scored using the Ashcroft grading system to measure degree of inflammation/fibrosis as per Hubner et al., 2008. […]
An entire lung from each animal was formalin fixed and stored in 70% ethanol. […] Percent area covered by trichrome staining was quantified using Qupath and ImageJ software.

For data set [3] the following is noted: cited from earlier work.
Data set [4] is described as follows: Stability in DMSO. The data set is classed as physicochemical.
The mark [5] stands for this setting: 1st experiment, caerulein induced, 15 mg/kg IV, Ib-010a and IVc-059a 150 mg/kg PO, Pirfenidone 40 mg/kg IV.
The mark [6] stands for this setting: 1st experiment, terminal pancreatic tissue, 15 mg/kg IV, Ib-010a and IVc-059a 150 mg/kg PO, Pirfenidone 40 mg/kg IV.
The mark [7] stands for this setting: 1st experiment, terminal serum, 15 mg/kg IV, Ib-010a and IVc-059a 150 mg/kg PO, Pirfenidone 40 mg/kg IV.
[8] abbreviates: second experiment, IV, 15 mg/kg, Pirfenidone 100 mg/kg.

Entries after “also recorded” stand apart in the source; their conditions may differ.

On to `Cc1ccc(=O)n(-c2ccccc2)c1` [pirfenidone, reference compound], for which, in data set [1] (setting [5]), the “Acinar cell necrosis (group mean score)” value stood at 0.8, the “Haemorrhage (group mean score)” value was 0.4, the “Interstitial oedema (group mean score)” value was found to be 1.0 and the “Leukocyte infiltration (group mean score)” value was 2.0. Also, in data set [1] (setting [5]), the “Mean terminal BW (% of initial)” value is on record as 97.6 % of initial, the “Mean terminal pancreas weight” value came to 0.136 g and the “Pancreas histopathology observations (H&E)” value is on record as “Mild oedema observed; also recorded: Mild haemorrhage observed; also recorded: Mild acinar cell necrosis observed; also recorded: Leukocyte infiltration observed; also recorded: Normal islet morphology observed in areas”. In addition, the “Schmidt Score (H&E)” value in data set [1] (1st experiment, caerulein induced, 15 mg/kg IV, Ib-010a and IVc-059a 150 mg/kg PO, Pirfenidone 40 mg/kg IV, induced + vehicle = 10, non-induced = 0) is 4.1. In data set [1] (setting [6]), the “Pancreas IL33 level” value stood at 78 ± 23, the “Pancreas MPO activity” value turned out to be 1.26 and the “Pancreas TGF-B level” value stood at 289 ± 170. In data set [1] (setting [7]), the “Serum IL33 level” value is reported as 39.16, the “Serum TGF-B level” value is on record as 5.5, the Serum amylase level was found to be 37.71 and the Serum lipase level is 7.65. In addition, in data set [1] (setting [8]), the Amylase is 45.171 mU/mL, the IL-33 was determined as 226 ± 151 ng/mL, the Lipase is recorded as 4.541 mU/mL and the MPO stood at 1.68 ± 0.44 U/mg. For the same compound, in data set [1] (setting [8]), the “Schmidt Score” value is reported as 8 ± 1, the TGF-B was determined as 578 ± 230 ng/mL and the “Trichome staining (Fibrosis % area)” value came to 1.277 ± 0.888 % area. Moreover, the “Lipase activity in serum” value in data set [1] (second experiment, pirfenidone 100 mg/kg, compounds 15 mg/k, vs vehicle treated animals) is “significantly lower than that in vehicle treated animals”. In addition, in data set [1] (second experiment, vs induced vehicle treated controls), the “MPO activity in pancreatic tissue” value is “significantly lower than induced vehicle treated controls”. In addition, the “Onset of fibrosis in mouse lung (Ashcroft score)” value in data set [2] is listed as “reduced the onset of fibrosis in mouse lung”.
With `CNC(=O)c1cccc(C(=O)NC)c1O` [bis (N-methyl)amide of 2-hydroxyisophthalic acid], in data set [3], the pKa of phenol is given as 6.81.
On to `O=C(O)c1cc(O)c(-c2nc3cccc(C(=O)O)c3[nH]2)cc1O` [Id-030a, 2-(4-Carboxy-2,5-dihydroxyphenyl)-1H-benzo[d]imidazole-4-carboxylic acid], for which the “Stability in DMSO (in words)” value in data set [4] is reported as “unstable in DMSO”.

Source of the values: patent publication US20230150951A1, “2,5- OR 2,6-DISUBSTITUTED HYDROQUINONE DERIVATIVES WITH AT LEAST ONE CARBOXY, SULFO OR AMIDO GROUP USEFUL AS MEDICAMENTS” (OM PHARMA SA, priority 2020, published 2023).
